Assay results reported in patent publication US9636299B2, “Method for treating diabetic retinopathy” (XAVIER UNIVERSITY OF LOUISIANA, priority 2012, dated 2017).
Residues, ends and D or L forms follow the SMILES beside them.

Columns and labels:
heparanase [1] = experiment: Laser photocoagulation-induced retinal injury in mice, heparanase real-time RT-PCR; format: in vivo, mouse; conditions: apoEdp 40 mg/kg intraperitoneally once each day for 7 days, vs mice without apoEdp
Procedure: Laser Photocoagulation-Induced Retinopathy. Female mice (C57BL/6J), aged 6-8 weeks, were used for retinal laser photocoagulation studies. The mice were treated and maintained in accordance with the ARVO Statement for the Use of Animals in Ophthalmic and Vision Research. The mice were anesthetized by intraperitoneal injection of a mixture of ketamine (100 mg/kg; Warner Lambert Co., Morris Plains, N.J.) and xylazine (10 mg/kg; Bayer AG, Leverkusen, Germany), and the pupils dilated with 2.5% tropicamide (Alcon, Fort Worth, Tex.). […]
RNA Extraction, Reverse Transcription, & PCR. […] Gene expression was measured at RNA level per 100 ng of total RNA using one-step RT-PCR kit (Bio-Rad, Hercules, Calif.). Four host genes (mouse GAPDH, mouse MMP2, mouse HPSE-1 (heparanase-1), and mouse MMP9) were analyzed to confirm relative quantitative expression levels. The primer pairs used were specifically designed and synthesized by Qiagen GmbH, Hilden, Germany (Quantitech Primer assay kit, for each host gene, catalog numbers QT01658692, QT00088396, QT00009555, and QT00040040, respectively). One-step Real-time quantitative RT-PCR reactions were performed in a 50-μL volume containing a solution of 1× supermix (iQ SYBR Green; Bio-Rad, Hercules, Calif.), 1 μM mix of forward and reverse primers, and 5 μL total RNA. […] Relative quantitative expression levels were determined for each gene. […]

MMP9 = MMP9 expression in high glucose-treated hRMECs (Western blot); format: cell-based, human; conditions: 30 mM glucose 72 hours, 50 or 100 μM apoEdp
Source text: (§1) Cell Culture. Primary cultures of human retina microvascular endothelial cells (hRMECs) were purchased from the Applied Cell Biology Research Institute and grown on attachment factor-coated plates in cell systems complete (CSC) medium (Cell Systems, Kirkland, Wash.) supplemented with 20% fetal bovine serum, culture boost (animal derived growth factors) and bac-off (antibiotics). The primary hRMECs were used in their passages 4 to 6. The 18-a.a. apoE mimetic peptide apoEdp (SEQ ID NO:3, Ac-LRKLRKRLLLRKLRKRLL-amide), derived from the human apolipoprotein E receptor-binding region (see SED ID NO:1) between residues 141 and 149, was synthesized (Genemed, Arlington, Tex.) with a purity of greater than 95%. The apoEdp peptide was dissolved in phosphate-buffered saline (“PBS”) at a concentration appropriate for further experimental use. […]
(§2) Western Blotting. […] The total protein concentration was determined using a BCA protein assay kit (Pierce, Rockford, Ill.). […] To ensure the equal loading of protein in each lane, each membrane was stripped and re-probed with an antibody against β-actin, and the chemiluminescence was detected as described previously. After scanning the blots with a flatbed scanner, band intensities were analyzed using ImageJ (NIH) and the relative intensity values were normalized to control values. […]

heparanase [2] = experiment: Heparanase expression in high glucose-treated hRMECs (Western blot); format: cell-based, human; conditions: 30 mM glucose 72 hours, 50 or 100 μM apoEdp
Source text: as §1, §2

[3] = test system: VEGF-induced ocular angiogenesis; conditions: rabbit eye model, reference 17; cited from earlier work

CC(=O)N[C@@H](CC(C)C)C(=O)N[C@@H](CCCNC(=N)N)C(=O)N[C@@H](CCCCN)C(=O)N[C@@H](CC(C)C)C(=O)N[C@@H](CCCNC(=N)N)C(=O)N[C@@H](CCCCN)C(=O)N[C@@H](CCCNC(=N)N)C(=O)N[C@@H](CC(C)C)C(=O)N[C@@H](CC(C)C)C(=O)N[C@@H](CC(C)C)C(=O)N[C@@H](CCCNC(=N)N)C(=O)N[C@@H](CCCCN)C(=O)N[C@@H](CC(C)C)C(=O)N[C@@H](CCCNC(=N)N)C(=O)N[C@@H](CCCCN)C(=O)N[C@@H](CCCNC(=N)N)C(=O)N[C@@H](CC(C)C)C(=O)N[C@@H](CC(C)C)C(N)=O [apoEdp, Ac-LRKLRKRLLLRKLRKRLL-amide] (Ac-LRKLRKRLLLRKLRKRLL-NH2)
Expression of heparanase in retina (heparanase [1]): dramatically reduced | High glucose-induced expression of MMP9 (MMP9): suppressed the expression | High glucose-induced expression of heparanase (heparanase [2]): suppressed the expression | VEGF-induced ocular angiogenesis [3]: blocks
